Assay results from PubChem BioAssay (NCI).
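Five compound concentrations were applied to cells in 96-well plates for 48 hours; endpoints were derived by simple linear interpolation of the resulting dose-response curve. At the GI50, growth is halved. The concentration for full growth arrest is given as TGI.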

Key:
Assay in all cases: inhibition of tumour cell growth, NCI panel, 48 h
[1] = test system: SK-OV-3 ovarian
[2] = test system: SF-539 CNS
[3] = test system: BT-549 breast
[4] = test system: HS 578T breast
[5] = test system: UACC-257 melanoma
[6] = test system: SK-MEL-2 melanoma
[7] = test system: M14 melanoma
[8] = test system: COLO 205 colon
[9] = test system: HOP-62 NSCLC
[10] = test system: DU-145 prostate
[11] = test system: MDA-N

Row | Structure (SMILES) | TGI [1] [µM] | TGI [2] [µM] | TGI [3] [µM] | TGI [4] [µM] | TGI [5] [µM] | TGI [6] [µM] | TGI [7] [µM] | TGI [8] [µM] | TGI [9] [µM] | TGI [10] [µM] | TGI [11] [µM] | GI50 [4] [µM]
1 | C[C@]12CC[C@H](O)CC1=CC[C@@H]1[C@@H]2CC[C@]2(C)c3nc(Cl)ccc3C[C@@H]12 | 99.2 | 37.2 | > 100 | > 100 | > 100 | > 100 | > 100 | > 100 | > 67.6 | > 100 | > 100 | –
2 | Cc1[nH]c(=O)nc2nc3ccc(Cl)cc3c(NC(C)(CO)CO)c12 | > 100 | > 100 | > 100 | > 100 | > 100 | > 100 | > 100 | > 100 | 61.3 | > 100 | > 100 | –
3 | NC(=O)C[C@H](NC(=O)C1(NC(=O)[C@H](Cc2ccc(CP(=O)(O)O)cc2)NC(=O)C(=O)O)CCCCC1)C(=O)NCCCc1cccc2ccccc12 | > 10 | > 10 | > 10 | > 10 | > 10 | > 10 | > 10 | > 10 | > 10 | > 10 | > 10 | –
4 | CCOc1cc2c(cc1O)CC[C@@H]1[C@@H]2CC[C@]2(C)C(OS(=O)OC3CC[C@@H]4[C@H]5CCc6cc(O)c(OCC)cc6[C@@H]5CC[C@@]34C)CC[C@@H]12 (stereo partly drawn) | > 37.3 | 1.85 | 13.6 | > 57.3 | > 42.8 | 6.19 | 2.58 | > 53.7 | > 27 | 11.5 | 0.544 | –
5 | O=C(Cc1ccccc1)N=Nc1c(O)[nH]c2ccccc12 | > 100 | > 100 | > 100 | > 100 | > 100 | > 100 | > 100 | > 100 | > 100 | > 100 | > 100 | –
6 | Cc1nc2c(Cl)cc(Cl)cc2c(Cl)c1CCCl | > 100 | > 100 | > 100 | > 100 | > 100 | > 100 | > 100 | > 100 | > 100 | > 100 | > 100 | –
7 | CCCCC1(N=[N+]=[N-])C(=O)C2C=CC=C3c4ccccc4N(C1=O)C32 (stereo not drawn) | > 31.6 | > 31.6 | > 31.6 | 26 | 30.9 | 21.5 | > 31.6 | > 31.6 | > 31.6 | > 100 | > 31.6 | –
8 | Cc1cc2c(cc1-c1cc3c(cc1C)C(C(C)C)=C(O)C(=O)/C3=C\Nc1c(C)n(C)n(-c3ccccc3)c1=O)/C(=C/Nc1c(C)n(C)n(-c3ccccc3)c1=O)C(=O)C(O)=C2C(C)C | > 100 | > 100 | > 100 | > 100 | > 100 | > 100 | > 100 | > 100 | > 100 | > 100 | > 100 | –
9 | CCCC(=O)Nc1cc(/C=C/C(=O)N2CC(CCl)c3c2cc([N+](=O)[O-])c2ccccc32)n(C)c1 (stereo not drawn) | > 100 | > 100 | > 100 | > 100 | > 100 | > 100 | > 100 | > 100 | > 100 | > 100 | > 100 | –
10 | NC(=O)c1ncn2c(=O)n(CCl)nnc12 | > 100 | > 100 | > 100 | > 100 | > 100 | > 100 | > 100 | > 100 | > 100 | > 100 | > 100 | –
11 | COC(=O)c1c(O)ccc2c1c1c(n2Cc2ccccn2)C(=O)c2ccccc2C1=O | 61.1 | 42.9 | > 100 | > 100 | > 100 | > 100 | > 100 | 34.3 | 77.7 | > 100 | > 100 | –
12 | CC(C)(C)c1cc(/C=C/C(=O)CC(=O)/C=C/c2cc(C(C)(C)C)c(O)c(C(C)(C)C)c2)cc(C(C)(C)C)c1O | > 50 | > 50 | > 50 | > 50 | > 50 | > 50 | > 50 | > 50 | > 50 | > 50 | > 50 | –
13 | CCCCCCCCCCCCCCCCCCOc1ccc(/C=C/C2=[N+](CCCl)CCO2)cc1 | > 100 | > 100 | > 100 | > 100 | > 100 | > 100 | > 100 | > 100 | > 100 | > 100 | > 100 | –
14 | COc1cc2c(cc1OC(=O)c1cc3ccccc3[nH]1)N=C[C@@H]1CCCN1C2=O | 15.2 | 1.17 | 5.37 | > 100 | 0.691 | 0.55 | 0.387 | 0.405 | 4.36 | 11.7 | 0.375 | –
15 | COP(=O)(OC)c1ccc(NCc2cc(O)ccc2O)cc1 | > 100 | 46.1 | 36.9 | > 63.8 | > 56.1 | > 87.8 | > 61.1 | > 64.6 | > 84.7 | > 90.5 | > 63.2 | –
16 | O=C(CCc1ccc(O)c(O)c1)NCCc1ccc(O)c(O)c1 | > 100 | > 100 | > 100 | > 100 | > 100 | > 100 | > 100 | > 100 | > 100 | > 100 | 33.9 | –
17 | COc1nc2ccc(CNc3ccc(C(=O)O)cc3)cc2nc1OC | > 10 | > 10 | > 10 | > 10 | > 10 | > 10 | > 10 | > 10 | > 10 | > 10 | > 10 | –
18 | Clc1cc(OCC23CC4CC(CC(C4)C2)C3)nc(OCC23CC4CC(CC(C4)C2)C3)n1 | > 100 | > 100 | > 100 | > 100 | > 100 | > 100 | > 100 | > 100 | > 100 | > 100 | > 100 | –
19 | COc1ccc(-c2nnc(CCCCCCCCc3nnc(-c4ccc(OC)cc4)n3N)n2N)cc1 | > 100 | > 100 | > 100 | > 100 | > 100 | > 100 | > 100 | > 100 | 65.8 | > 100 | > 100 | –
20 | COC(=O)C(Cc1ccccc1)NC(=O)c1ccc(CNC(=S)NCc2cccc(CNC(=S)NCc3ccccc3)c2)cc1 (stereo not drawn) | > 62.5 | > 62.5 | > 62.5 | > 62.5 | > 62.5 | > 62.5 | > 62.5 | > 62.5 | > 62.5 | > 62.5 | > 62.5 | –
21 | CCCCCC(O)(CCCCC)CCCCCCCCC1=C(O)c2ccccc2C(=O)C1=O | > 64.1 | 27.5 | 39.6 | 54.5 | > 66.5 | 27.7 | 24.8 | 42.4 | 25.6 | 25.7 | 31.3 | –
22 | CSC1(SC)N2Cc3ccccc3N=C2C1(c1ccccc1)c1ccccc1 | > 100 | 31.6 | > 92.6 | > 82.5 | > 90.2 | > 58.1 | > 100 | 15.6 | > 100 | > 100 | > 96.7 | –
23 | COc1cc(C2c3cc4c(cc3OC3(OC)COC(=O)C23)OCO4)cc(OC)c1OC (stereo not drawn) | > 100 | 0.697 | > 100 | > 100 | > 100 | > 40.9 | 8.43 | 0.64 | > 100 | 6.51 | 0.319 | –
24 | NNC(=O)CCC(NS(=O)(=O)c1ccc(Cl)cc1)C(=O)NN (stereo not drawn) | > 100 | > 100 | > 100 | > 100 | > 100 | > 100 | > 100 | > 100 | > 100 | > 100 | > 100 | –
25 | S=c1nc2sc3c(c2c(Nc2ccc(Br)cc2)[nH]1)CCN(N1CCc2c(sc4nc(=S)[nH]c(Nc5ccc(Br)cc5)c24)C1)C3 | > 50 | > 50 | > 50 | > 50 | > 50 | > 50 | 17.1 | > 50 | > 50 | > 50 | 44.2 | –
26 | O=[N+]([O-])c1ccc2nc(/C=C(\O)c3ccccc3)c(/C=C(\O)c3ccccc3)nc2c1 | > 75.4 | 22.8 | 62.1 | 48.6 | > 100 | > 82.2 | > 67.3 | > 100 | 35.2 | > 91 | > 100 | 6.83
27 | COc1ccc(N=N/C(=N/NC(=O)c2cc(Cl)ccc2C(=O)c2ccccc2)c2ccc(N(CCC#N)CCC#N)cc2C)cc1 | > 100 | – | > 100 | > 100 | 81 | 50 | 92 | 42.9 | 81.2 | > 100 | > 100 | –
28 | CN(C)CCCNc1cnc2cc3ccccc3cc2n1 | > 100 | 68.8 | 58.9 | > 100 | 42.5 | 44.8 | 50.5 | 38.8 | > 100 | > 100 | > 100 | –
